Data set [1] relates to HeLa cells. Kind of data set: Luciferase Protein Expression Assay in HeLa Cells. Format: cell-based, Human. Particulars: LNPs encapsulating Luciferase mRNA, 25 ng per well, N=4 wells; 5 h serum-free then 24 h; ONE-Glo. In outline: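 Luminescence output, average RLU across N=4 wells, was measured with ONE-Glo after cell lysis. Before that, HeLa cells were exposed to 25 ng/well luciferase-mRNA nanoparticles (PBS control) for 5 h serum-free, then cultured overnight (24 h) in complete MEM.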

Data set [2] has as its system HeLa cells. Kind of data set: CFTR Protein Expression Assay in HeLa Cells. It is filed as cell-based, Human. The following applies: LNPs encapsulating CFTR mRNA, N=4 wells; 5 h serum-free then 24 h; immunofluorescence vs PBS control. In outline:
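Readout is fold-change in per-cell CFTR immunofluorescence intensity (488 nm, confocal imaging) relative to PBS-treated cells, from 4 replicate wells. LNPs encapsulating CFTR mRNA were applied serum-free for 5 h, followed by 24 h in complete medium before PFA fixation.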

Data set [3] in a line: Encapsulation of mRNA nanoparticles with lipid amines using Ribogreen assay. Format: physicochemical. In outline:
(§1)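 DLS gave size and PDI, and Ribogreen gave encapsulation, for luciferase- or CFTR-mRNA nanoparticles (N:P 4.93). Particles came from IL1/DSPC/cholesterol/PEG-DMG-2K mixed at pH 4, mRNA-loaded, neutralized with TRIS pH 8.12, and then treated with lipid amine SA50 in pH 7.5 buffer.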

A short description of data set [4]: Diameter and PDI from DLS measurements of mRNA nanoparticles with lipid amines. Format: physicochemical. In a few lines: as §1
Setting [5] is: CFTR mRNA nanoparticle with lipid amine.
Setting [6] is: Luciferase mRNA nanoparticle modified with lipid amine.

Molecules are shown by their SMILES. Where a name gives a salt, the structure may show the parent alone.

Take `CC[C@H](CC[C@@H](C)[C@H]1CC[C@H]2[C@@H]3CC=C4C[C@@H](OC(=O)CCC(=O)N(CCCCCCCC(C)(C)N)CCC(C)(C)N)CC[C@]4(C)[C@H]3CC[C@]12C)C(C)C` [SA165, (3S,8S,9S,10R,13R,14S,17R)-17-((2R,5R)-5-ethyl-6-methylheptan-2-yl)-10,13-dimethyl-2,3,4,7,8,9,10,11,12,13,14,15,16,17-tetradecahydro-1H-cyclopenta[a]phenanthren-3-yl 4-((3-amino-3-methylbutyl)(8-amino-8-methylnonyl)amino)-4-oxobutanoate dihydrochloride]: the “Average Relative Light Units ± Standard Deviation” value with HeLa cells [1] came out at 33585.6 ± 7766.5 Relative Light Units. The “Average fold-change in CFTR signal intensity per cell compared to buffer control ± standard deviation” value in the data set on HeLa cells [2] is 14.0 ± 0.5 fold-change. The “% Encapsulation (Ribogreen)” value in data set [3] (setting [5]) and in data set [3] (setting [6]) was 98.8% throughout. The “Diameter (nm)” value in data set [4] (setting [5]) amounted to 69.8 nm; in data set [4] (setting [6]), 72 nm. Besides, the PDI in data set [4] (setting [5]) is given as 0.12; in data set [4] (setting [6]), 0.13.

On to `CC(C)CCC[C@@H](C)[C@H]1CC[C@H]2[C@@H]3CC=C4C[C@@H](OC(=O)CCC(=O)N(CCCC(C)(C)N)CCC(C)(C)N)CC[C@]4(C)[C@H]3CC[C@]12C` [SA166, (3S,8S,9S,10R,13R,14S,17R)-10,13-dimethyl-17-((R)-6-methylheptan-2-yl)-2,3,4,7,8,9,10,11,12,13,14,15,16,17-tetradecahydro-1H-cyclopenta[a]phenanthren-3-yl 4-((3-amino-3-methylbutyl)(4-amino-4-methylpentyl)amino)-4-oxobutanoate dihydrochloride], for which the “Average Relative Light Units ± Standard Deviation” value in the data set on HeLa cells [1] turned out to be 33377.3 ± 8879.8 Relative Light Units. The “Average fold-change in CFTR signal intensity per cell compared to buffer control ± standard deviation” value in the data set on HeLa cells [2] was 15.6 ± 1.3 fold-change. Also, the “% Encapsulation (Ribogreen)” value in data set [3] (setting [5]) stood at 99.5%; in data set [3] (setting [6]), 99.2%. Further, the “Diameter (nm)” value in data set [4] (setting [5]) was found to be 76.1 nm; in data set [4] (setting [6]), 75 nm. Besides, the PDI in data set [4] (setting [5]) worked out at 0.16; in data set [4] (setting [6]), 0.14.

`CC[C@H](CC[C@@H](C)[C@H]1CC[C@H]2[C@@H]3CC=C4C[C@@H](OC(=O)CCC(=O)N(CCCC(C)(C)N)CCC(C)(C)N)CC[C@]4(C)[C@H]3CC[C@]12C)C(C)C` [SA167, (3S,8S,9S,10R,13R,14S,17R)-17-((2R,5R)-5-ethyl-6-methylheptan-2-yl)-10,13-dimethyl-2,3,4,7,8,9,10,11,12,13,14,15,16,17-tetradecahydro-1H-cyclopenta[a]phenanthren-3-yl 4-((3-amino-3-methylbutyl)(4-amino-4-methylpentyl)amino)-4-oxobutanoate dihydrochloride]: the “Average Relative Light Units ± Standard Deviation” value in the data set on HeLa cells [1] is on record as 38742.4 ± 6037.5 Relative Light Units. The “Average fold-change in CFTR signal intensity per cell compared to buffer control ± standard deviation” value in the data set with HeLa cells [2] was found to be 14.9 ± 1.4 fold-change. The figures for the “% Encapsulation (Ribogreen)” value in data set [3] (setting [5]) and in data set [3] (setting [6]) were 100% and 98.7%, respectively. Besides, the figures for the “Diameter (nm)” value in data set [4] (setting [5]) and in data set [4] (setting [6]) were 75.1 nm and 75 nm, respectively. Moreover, the PDI in data set [4] (setting [5]) amounted to 0.16; in data set [4] (setting [6]), 0.15.

With `CC[C@H](CC[C@@H](C)[C@H]1CC[C@H]2[C@@H]3CC=C4C[C@@H](OC(=O)CCC(=O)N(CCC(C)N)CCC(C)N)CC[C@]4(C)[C@H]3CC[C@]12C)C(C)C` (stereo partly drawn) [SA168, (3S,8S,9S,10R,13R,14S,17R)-17-((2R,5R)-5-ethyl-6-methylheptan-2-yl)-10,13-dimethyl-2,3,4,7,8,9,10,11,12,13,14,15,16,17-tetradecahydro-1H-cyclopenta[a]phenanthren-3-yl 4-(bis(3-aminobutyl)amino)-4-oxobutanoate dihydrochloride], in the data set with HeLa cells [1], the “Average Relative Light Units ± Standard Deviation” value was 35639.5 ± 6688.9 Relative Light Units. Moreover, the “Average fold-change in CFTR signal intensity per cell compared to buffer control ± standard deviation” value with HeLa cells [2] stood at 14.8 ± 0.7 fold-change. In addition, the “% Encapsulation (Ribogreen)” value in data set [3] (setting [5]) and in data set [3] (setting [6]) was 99.3% throughout. For the same molecule, the “Diameter (nm)” value in data set [4] (setting [5]) is 76.1 nm; in data set [4] (setting [6]), 79 nm. Besides, the PDI in data set [4] (setting [5]) was 0.15; in data set [4] (setting [6]), 0.16.

On to `CC(C)CCC[C@@H](C)[C@H]1CC[C@H]2[C@@H]3CC=C4C[C@@H](OC(=O)CCC(=O)N(CCC(C)(C)N)CCC(C)(C)N)CC[C@]4(C)[C@H]3CC[C@]12C` [SA169, (3S,8S,9S,10R,13R,14S,17R)-10,13-dimethyl-17-((R)-6-methylheptan-2-yl)-2,3,4,7,8,9,10,11,12,13,14,15,16,17-tetradecahydro-1H-cyclopenta[a]phenanthren-3-yl 4-(bis(3-amino-3-methylbutyl)amino)-4-oxobutanoate dihydrochloride], for which, in the data set on HeLa cells [1], the “Average Relative Light Units ± Standard Deviation” value amounted to 28034.9 ± 4050.3 Relative Light Units. Also, in the data set with HeLa cells [2], the “Average fold-change in CFTR signal intensity per cell compared to buffer control ± standard deviation” value came to 19.7 ± 1.6 fold-change. Further, the “% Encapsulation (Ribogreen)” value in data set [3] (setting [5]) came out at 99.2%; in data set [3] (setting [6]), 99.4%. The “Diameter (nm)” value in data set [4] (setting [5]) was 73.0 nm; in data set [4] (setting [6]), 77 nm. The PDI in data set [4] (setting [5]) is recorded as 0.14; in data set [4] (setting [6]), 0.20.

Regarding `CC[C@H](CC[C@@H](C)[C@H]1CC[C@H]2[C@@H]3CC=C4C[C@@H](OC(=O)CCC(=O)N(CCC(C)(C)N)CCC(C)(C)N)CC[C@]4(C)[C@H]3CC[C@]12C)C(C)C` [SA170, (3S,8S,9S,10R,13R,14S,17R)-17-((2R,5R)-5-ethyl-6-methylheptan-2-yl)-10,13-dimethyl-2,3,4,7,8,9,10,11,12,13,14,15,16,17-tetradecahydro-1H-cyclopenta[a]phenanthren-3-yl 4-(bis(3-amino-3-methylbutyl)amino)-4-oxobutanoate dihydrochloride], the “Average Relative Light Units ± Standard Deviation” value with HeLa cells [1] stood at 23687.3 ± 3865 Relative Light Units. Moreover, in the data set on HeLa cells [2], the “Average fold-change in CFTR signal intensity per cell compared to buffer control ± standard deviation” value amounted to 19.0 ± 1.7 fold-change. The figures for the “% Encapsulation (Ribogreen)” value in data set [3] (setting [5]) and in data set [3] (setting [6]) were 99.2% and 99.6%, respectively. Moreover, the figures for the “Diameter (nm)” value in data set [4] (setting [5]) and in data set [4] (setting [6]) were 74.8 nm and 75 nm, respectively. In addition, the figures for the PDI in data set [4] (setting [5]) and in data set [4] (setting [6]) were 0.15 and 0.21, respectively.

In the case of `CC(C)CCC[C@@H](C)[C@H]1CC[C@H]2[C@@H]3CC=C4C[C@@H](SSCCC(=O)N(CCCCNCCC(C)N)CCC(C)N)CC[C@]4(C)[C@H]3CC[C@]12C` (stereo partly drawn) [SA171, N-(3-aminobutyl)-N-(4-((3-aminobutyl)amino)butyl)-3-(((3S,8S,9S,10R,13R,14S,17R)-10,13-dimethyl-17-((R)-6-methylheptan-2-yl)-2,3,4,7,8,9,10,11,12,13,14,15,16,17-tetradecahydro-1H-cyclopenta[a]phenanthren-3-yl)disulfaneyl)propanamide trihydrochloride], the “Average Relative Light Units ± Standard Deviation” value with HeLa cells [1] turned out to be 22232.4 ± 9084.1 Relative Light Units. Moreover, the “Average fold-change in CFTR signal intensity per cell compared to buffer control ± standard deviation” value in the data set on HeLa cells [2] was found to be 18.9 ± 1.9 fold-change. The “% Encapsulation (Ribogreen)” value in data set [3] (setting [5]) stood at 99.4%; in data set [3] (setting [6]), 99.2%. For the same molecule, the “Diameter (nm)” value came out at 71.3 nm in data set [4] (setting [5]) and 73 nm in data set [4] (setting [6]). In addition, the PDI in data set [4] (setting [5]) is given as 0.11; in data set [4] (setting [6]), 0.23.

For `CC(C)CCC[C@@H](C)[C@H]1CC[C@H]2[C@@H]3CC=C4C[C@@H](SSCCC(=O)N(CCCCCCCC(C)N)CCC(C)N)CC[C@]4(C)[C@H]3CC[C@]12C` (stereo partly drawn) [SA172, N-(3-aminobutyl)-N-(8-aminononyl)-3-(((3S,8S,9S,10R,13R,14S,17R)-10,13-dimethyl-17-((R)-6-methylheptan-2-yl)-2,3,4,7,8,9,10,11,12,13,14,15,16,17-tetradecahydro-1H-cyclopenta[a]phenanthren-3-yl)disulfaneyl)propanamide dihydrochloride], the “Average Relative Light Units ± Standard Deviation” value in the data set with HeLa cells [1] amounted to 27528.4 ± 6654.4 Relative Light Units. Moreover, the “Average fold-change in CFTR signal intensity per cell compared to buffer control ± standard deviation” value in the data set on HeLa cells [2] came out at 17.8 ± 1.1 fold-change. Further, the “% Encapsulation (Ribogreen)” value in data set [3] (setting [5]) came to 98.3%; in data set [3] (setting [6]), 99.4%. The “Diameter (nm)” value in data set [4] (setting [5]) is given as 70.3 nm; in data set [4] (setting [6]), 74 nm. The PDI in data set [4] (setting [5]) is recorded as 0.13; in data set [4] (setting [6]) it was 0.10.

In the case of `CC(C)CCC[C@@H](C)[C@H]1CC[C@H]2[C@@H]3CC=C4C[C@@H](SSCCC(=O)N(CCC(C)N)CCC(C)N)CC[C@]4(C)[C@H]3CC[C@]12C` (stereo partly drawn) [SA173, N,N-bis(3-aminobutyl)-3-(((3S,8S,9S,10R,13R,14S,17R)-10,13-dimethyl-17-((R)-6-methylheptan-2-yl)-2,3,4,7,8,9,10,11,12,13,14,15,16,17-tetradecahydro-1H-cyclopenta[a]phenanthren-3-yl)disulfaneyl)propanamide dihydrochloride], in the data set on HeLa cells [1], the “Average Relative Light Units ± Standard Deviation” value turned out to be 33596.1 ± 6033 Relative Light Units. Also, the “Average fold-change in CFTR signal intensity per cell compared to buffer control ± standard deviation” value in the data set with HeLa cells [2] stood at 13.5 ± 0.8 fold-change. In addition, the “% Encapsulation (Ribogreen)” value came out at 100% in data set [3] (setting [5]) and 99.5% in data set [3] (setting [6]). The “Diameter (nm)” value in data set [4] (setting [5]) stood at 71.8 nm; in data set [4] (setting [6]), 73 nm. The PDI in data set [4] (setting [5]) is listed as 0.16; in data set [4] (setting [6]), 0.18.

The values above are taken from US20260109732A1, “LIPID AMINES” (ModernaTX, Inc., priority 2021, published 2026).
